{"source": "patent US20240374601A1", "about": "“METHODS AND COMPOSITIONS FOR TREATING CANCER” (Onconova Therapeutics, Inc., priority 2021, published 2024)", "key": {"prostate cancer cells": {"system": "prostate cancer cells", "assay": "Growth of cancer cell lines resistant to Comparator-1", "format": "cell-based", "details": "prostate cancer cells resistant to Comparator-1"}, "breast cancer cells": {"system": "breast cancer cells", "assay": "Growth of cancer cell lines resistant to Comparator-1", "format": "cell-based", "details": "breast cancer cells resistant to Comparator-1"}, "Neutropenia, FIG. 2": {"assay": "Neutropenia, FIG. 2", "format": "cell-based", "details": "ovarian cancer cell line; compared to Comparator 1"}, "[1]": {"assay": "Myelosuppression and neutropenia in preclinical models", "details": "in comparison to Comparator-1"}, "ovarian cancer cells": {"system": "ovarian cancer cells", "assay": "Growth of ovarian cancer cell lines", "format": "cell-based"}}}
{"smiles": "CN1CCN(c2ccc(Nc3ncc4cc(C#N)c(=O)n(C5CCCC5)c4n3)cc2)CC1", "note": "[Compound 1, 8-cyclopentyl-2-((4-(4-methylpiperazin-1-yl)phenyl)amino)-7-oxo-7,8-dihydropyrido[2,3-d]pyrimidine-6-carbonitrile]", "values": [{"measurement": "growth of cancer cell lines", "setting": "prostate cancer cells", "value": "inhibited growth"}, {"measurement": "growth of cancer cell lines", "setting": "breast cancer cells", "value": "inhibited growth"}, {"measurement": "neutropenia (FIG. 2)", "setting": "Neutropenia, FIG. 2", "value": "reduced neutropenia"}, {"measurement": "myelosuppression", "setting": "[1]", "value": "less myelosuppression"}, {"measurement": "neutropenia", "setting": "[1]", "value": "less neutropenia"}, {"measurement": "inhibition of ovarian cancer cell line growth (FIG. 3)", "setting": "ovarian cancer cells; compared to Comparator 1", "value": "higher inhibition"}, {"measurement": "growth of cancer cell lines", "setting": "ovarian cancer cells; ovarian cancer cells resistant to Comparator-1", "value": "inhibited growth"}]}
